Patent US9517230B2, “Small molecule RNase inhibitors and methods of use” (UNIVERSITY OF ROCHESTER, priority 2011, dated 2016)
Entries after “also recorded” stand apart in the source; their conditions may differ.

Tests used:
[1] = target: T1, S. aureus RnpA (Staphylococcus aureus, UniProt P0A0H5); assay: RnpA-mediated RNA (spa mRNA) degradation inhibitory titration assay; format: biochemical; details: for IC50: 1 pmol spa mRNA, 20 pmol RnpA, one hour at 37° C., agarose gel, read-out: apparent IC50
T1 construct: hexahistidine-tag (pET-30 Ek/LIC leader) (N); made in house; host or cells: E. coli BL21 (DE3)
T1 sequence (P0A0H5 1-117): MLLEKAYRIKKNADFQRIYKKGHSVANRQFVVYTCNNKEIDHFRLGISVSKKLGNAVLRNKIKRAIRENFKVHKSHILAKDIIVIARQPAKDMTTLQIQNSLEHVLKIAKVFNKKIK
Protocol: Specifically, members of the ActiProbe-25K and Natural Product libraries (29,940 compounds total; TimTec Inc.; Newark, Del.) were screened for small molecule inhibitors of S. aureus RnpA mediated total bacterial RNA degradation. All reactions (50 μl) were performed in 96-well format and contained 20 pmol RnpA, 200 ng S. aureus total RNA, and ˜5 μM of each compound in 1× reaction buffer (2 mM NaCl, 2 mM MgCl2, 50 mM Tris-HCl, pH 6.0). Mixtures were incubated at 37° C. for 20 min at which time Quant-iT RiboGreen® (100 μl; Invitrogen) was added to quantify the amount of RNA substrate remaining. Percent enzyme inhibition was calculated as remaining substrate/starting substrate*100. For inhibitory titration assays, 1 pmol of spa mRNA was incubated with 20 pmol RnpA alone (positive control) or in the presence of one of four compounds for one hour at 37° C. […] Following this, 20 μl of each reaction mixture were subjected to electrophoresis in a 1.2% formaldehyde-containing agarose gel and visualized by ethidium bromide staining.

[2] = test system: HepG2 human hepatocytes; assay: HepG2 MTT cytotoxicity assay; format: cell-based; details: 1×, 2×, 4× the MIC value for 48 hours
Protocol: It was then assessed whether RnpA-inhibitory agent concentrations corresponding to the effective bacterial MIC values (10-50 μg/ml) elicited human cell cytotoxicity. HepG2 human hepatocytes (10^5 cells) were seeded in individual wells of a microtitre plate and incubated for 16 hr at 37° C. with 5% carbon dioxide in Dulbecco's Modified Eagle Media supplemented with 10% fetal bovine serum. Cells were then challenged with Mitomycin C (5 or 10 μg/ml; positive control) or 1, 2, or 4 times (1×, 2×, 4×) the MIC value of the indicated RnpA inhibitory compound for 48 hours. Cell viability was measured spectrophotometrically (570 nm) following the addition and subsequent reduction of tetrazolium salt (MTT) within metabolically active cells, as per the manufacturer's recommendations (American Type Culture Collection; Manassas, Va.).

[3] = test system: MRSA; assay: Antimicrobial susceptibility testing, broth microdilution (CLSI); format: cell-based, Staphylococcus aureus; details: 18 hr at 37° C.
Text: In some examples, compounds can be further assayed using the Mueller Hinton (MH) broth antibacterial assay as specified by the Clinical and Laboratory Standards Institute MIC broth microdilution protocol (see Methods for Dilution Antimicrobial Susceptibility Tests for Bacteria That Grow Aerobically; Approved Standard, In The Clinical and Laboratory Standards Institute (CLSI, formerly NCCLS), 7th ed., January 2006, 26 (2), M7-A7; see also Performance Standards for Antimicrobial Susceptibility Testing; Eighteenth Informational Supplement, In The Clinical and Laboratory Standards Institute (CLSI, formerly NCCLS), January 2008, 28 (1), M100-S18).
Microtiter plates containing serial dilutions of the compounds 1000 (0, 4, 8, 16, 32, 64, and 128 μg/ml) were inoculated with 10^5 colony forming units (CFU)/ml and incubated for 18 hr at 37° C.

| SMILES | inhibition of RnpA-mediated RNA degradation (in words) [1] | IC50 [1] [µM] | human cell cytotoxicity / cell survival (in words) [2] | human cell cytotoxicity / cell survival (in words) ([2]; listed as ST003531) | antimicrobial activity against MRSA (in words) [3] | human cell cytotoxicity / cell survival (in words) ([2]; listed as ST006630) |
| --- | --- | --- | --- | --- | --- | --- |
| CC(C)c1ccc(OCC(=O)NNC(=S)NC(=O)c2ccco2)cc1 [RNPA-2000] | inhibit RnpA-mediated RNA degradation; also recorded: excellent RnpA-inhibitory activity | 15 to 20 | do not cause human cytotoxicity | did not affect human cell survival | moderate antimicrobial activity; also recorded: good antistaphylococcal activity | – |
| O=C(O)CCN1C(=O)/C(=C\c2ccc(-c3ccc(Cl)cc3)o2)SC1=S [RNPA-3000] | inhibit RnpA-mediated RNA degradation; also recorded: excellent RnpA-inhibitory activity | 12.5 to 20 | do not cause human cytotoxicity | – | moderate antimicrobial activity; also recorded: good antistaphylococcal activity | did not affect human cell survival |
